Assay results taken from patent US20230399325A1, “SUCCINATE AND CRYSTAL FORM THEREOF AS THERAPEUTICS” (AUCENTRA THERAPEUTICS PTY LTD, priority 2020, published 2023).
Converted amounts (≈) assume the structure as drawn. “And” between values parts separate entries of the source, which are not always exact repeats. Identical values can stand only once. Like-named read-outs stand apart in the source and are kept apart here.

Columns and labels:
[1] = test system: COLO 205 colorectal tumor xenograft; assay: COLO 205 colorectal tumor xenograft; assay type: in vivo, mice; details: 15 mg/kg intraperitoneally
Experimental: A separate study of Compound A succinate was conducted in COLO 205 colorectal tumor xenograft. The tumor-bearing mice (n=8) were treated orally with vehicle (ultra-pure water), or Compound A succinate (50 or 100 mg/kg) once daily for 21 days. As a positive control chemotherapy 5-FU (15 mg/kg) was given intraperitoneally. […] 5-FU was also effective with a T/C=47.2% (Table 7).

[2] = Dynamic solubility in water and FaSSIF at 37° C.; assay type: physicochemical; details: for solubility compared to Compound A free base: both FaSSIF and water; for solubility at 1 h / solubility at 2 h / solubility at 4 h / solubility at 24 h: thermodynamic from solid, read-out: S: Solubility
[3] = Solid-state stability, 14 days, HPLC; assay type: physicochemical
Experimental: Compound A salts and Compound A were tested for their solid-state stability under the conditions of 25° C./60% RH and 40° C./75% RH.

[4] = Hygroscopicity by dynamic moisture adsorption (DVS); assay type: physicochemical; details: for Hygroscopicity: 25° C./80% RH
Experimental: Dynamic moisture adsorption (DVS) was used to evaluate the hygroscopicity of compound A and salt forms under the condition of 25° C. and 80% RH.

[5] = Pharmacokinetic study of Compound A in male cynomolgus monkeys; assay type: in vivo
Experimental: Two groups of male cynomolgus monkeys (n=3 per group) were given Compound A by a single intravenous injection (i.v.) of 5 mg/kg, or intragastric administration (i.g.) of 50 mg/kg. Blood samples were collected at different time points. The exposure of Compound A in plasma samples were measured by LC-MS/MS method, and PK parameters (Table 8) were calculated using Phoenix WinNonlin 8.0 software.

[6] = test system: A2780 ovarian cancer cells; assay: Subcutaneous A2780 ovarian cancer xenograft; assay type: in vivo, female BALB/c nude mice; details: 75 mg/kg orally once a day
Experimental: Compound A succinate was also assessed for in vivo anti-tumor activity in subcutaneous xenografts. Briefly, female BALB/c nude mice were inoculated with A2780 ovarian cancer cells; when the mean tumour volume reached 150-200 mm^3, animals were randomized to groups. The animals (n=8 per group) were treated orally with vehicle (ultra-pure water), Compound A succinate (62.5, 125 or 250 mg/kg), or Palbociclib (75 mg/kg) once a day for 14 consecutive days. Mice were observed daily for signs of toxicity and weight loss, and tumour volume measured every other day. […] Palbociclib was efficacious at 75 mg/kg, resulting in T/C of 42.8% (Table 6).

[7] = cynomolgus monkey, plasma, iv, i.v. 5 mg/kg
[8] = cynomolgus monkey, plasma, po, i.g. 50 mg/kg

| SMILES | S: Solubility ([2]; FaSSIF, 1 hour) [µg/mL] | S: Solubility ([2]; FaSSIF, 2 hours) [µg/mL] | S: Solubility ([2]; FaSSIF, 4 hours) [µg/mL] | S: Solubility ([2]; FaSSIF, 24 hours) [µg/mL] | S: Solubility ([2]; H2O, 1 hour) [µg/mL] | S: Solubility ([2]; H2O, 2 hours) [µg/mL] | S: Solubility ([2]; H2O, 4 hours) [µg/mL] | S: Solubility ([2]; H2O, 24 hours) [µg/mL] | solubility compared to Compound A free base [2] | Purity ([3]; 25° C./60% RH) [area %] | Relative purity ([3]; 25° C./60% RH) | Purity ([3]; 40° C./75% RH) [area %] | Relative purity ([3]; 40° C./75% RH) | Moisture absorbed at 25° C./80% RH [4] [%] | Hygroscopicity [4] | other results |
| --- | --- | --- | --- | --- | --- | --- | --- | --- | --- | --- | --- | --- | --- | --- | --- | --- |
| O=c1[nH]cc(F)c(=O)[nH]1 [Compound 5-FU, 5-FU, reference compound] | – | – | – | – | – | – | – | – | – | – | – | – | – | – | – | Inhibition of tumor growth (T/C) [1]: 47.2%; Tumor volume (±S) [1]: 799.62 ± 61.95 mm^3 |
| CCN1CCN(Cc2ccc(Nc3ncc(F)c(-c4sc(NC5CCCC5)nc4C)n3)nc2)CC1.Cl [Compound A hydrochloride] | 2000 | 2000 | 2200 | 2100 | 6800 | 7100 | 7200 | 6800 | significantly increased | 97.6 | 99.9 % of initial | 97.7 | 100.0 % of initial | 3.4 | Hygroscopic | – |
| CCN1CCN(Cc2ccc(Nc3ncc(F)c(-c4sc(NC5CCCC5)nc4C)n3)nc2)CC1.CS(=O)(=O)O [Compound A mesylate] | 8800 | 8300 | 8400 | 4400 | 8200 | 8300 | 8600 | 8500 | significantly increased | 97.6 | 100.1 % of initial | 97.5 | 100.0 % of initial | 14.4 | Extremely hygroscopic | – |
| CCN1CCN(Cc2ccc(Nc3ncc(F)c(-c4sc(NC5CCCC5)nc4C)n3)nc2)CC1.O=P(O)(O)O [Compound A phosphate] | 1700 | 670 | 470 | 330 | 450 | 410 | 440 | 360 | – | 98.3 | 100.0 % of initial | 98.2 | 99.9 % of initial | 3.7 | Hygroscopic | – |
| CCN1CCN(Cc2ccc(Nc3ncc(F)c(-c4sc(NC5CCCC5)nc4C)n3)nc2)CC1 [Compound A, N-Cyclopentyl-5-(2-((5-((4-ethylpiperazin-1-yl)methyl)pyridin-2-yl)amino)-5-fluoropyrimidin-4-yl)-4-methylthiazol-2-amine] | – | – | – | – | – | – | – | – | – | 97.6 | 100.0 % of initial | 97.6 | 100.1 % of initial | 1.4 | Slightly hygroscopic | solubility at 1 h ([2]; FaSSIF, 1 hour): 270 µg/mL (≈ 544 µM); solubility at 2 h ([2]; FaSSIF, 2 hours): 280 µg/mL (≈ 564 µM); solubility at 4 h ([2]; FaSSIF, 4 hours): 240 µg/mL (≈ 483 µM); solubility at 24 h ([2]; FaSSIF, 24 hours): 200 µg/mL (≈ 403 µM); solubility at 1 h ([2]; water, H2O, 1 hour): 220 µg/mL (≈ 443 µM); solubility at 2 h ([2]; water, H2O, 2 hours): 240 µg/mL (≈ 483 µM); solubility at 4 h ([2]; water, H2O, 4 hours): 240 µg/mL (≈ 483 µM); solubility at 24 h ([2]; water, H2O, 24 hours): 220 µg/mL (≈ 443 µM); AUC(0-inf) [5, 7]: 4560 ng·h/mL; AUC(0-t) [5, 7]: 4190 ng·h/mL; Cmax [5, 7]: 447 ng/mL; Vd [5, 7]: 9.8 L/kg; clearance [5, 7]: 19.4 mL/min/kg; half-life [5, 7]: 6.5 h; Cmax [5, 8]: 643 ng/mL; half-life [5, 8]: 8.3 h; F ([5]; i.g. 50 mg/kg): 21.8% |
| CC(=O)c1c(C)c2cnc(Nc3ccc(N4CCNCC4)cn3)nc2n(C2CCCC2)c1=O [Palbociclib, reference compound] | – | – | – | – | – | – | – | – | – | – | – | – | – | – | – | Tumor volume (±S) ([6]; 14 days): 1850.1 ± 121.1 mm^3; Mean tumor growth inhibition (T/C) ([6]; day 14): 42.8% and 42.79% |
